We go through 62 compounds from a melting point compilation (Tetko et al.; mined from patent text by program, amines drawn as free bases though some values may be those of a salt).

The melting point is the temperature, or range, at which the solid turns liquid.

The compound `O=C1c2ccccc2C(=O)N1CC1CC(=O)N(Cc2ccccc2)c2ccccc2N1` (configuration not stated) yielded a melting point of 127 to 130 °C.

`O=C1CCC(C(=O)OCc2ccccn2)N1` (configuration not stated) had a melting point of 130 to 131 °C.

`CC(C)(CO)COc1ccc(-c2c(C(N)=O)oc3ccccc23)cc1C#N` had a melting point of 199 to 201 °C.

The compound `OC[C@@H](O)CNCc1ccccc1` registered a melting point of 63 °C.

Take `c1ccc2c(c1)OCC(CN1CCC(CNc3nc4cc5c(cc4s3)OCO5)CC1)O2` (configuration not stated): the melting point came out at 160 °C.

The compound `Cc1ccc2c(c1)S(=O)(=O)N=C(NC(C)C)N2` yielded a melting point of 266 to 268 °C.

Consider `CCCCCNC(=O)N(C)c1cccc(-c2ccc(C=C(OC)C(=O)O)cc2OCCCC)c1`, for which the melting point came out at 61 °C.

The compound `CCOC(=NC(=O)OC)NC(=O)Nc1cc(C(=O)OC)c(Cl)cc1F` registered a melting point of 105 to 107 °C.

In turn, `O=C(CBr)c1cccc(Nc2ccc3ccccc3n2)c1` returned a melting point of 151 to 152 °C.

`CC(C)CC1(Cn2cnc3ccccc32)Sc2[nH]c(=O)n(C)c(=O)c2C1Sc1cccs1` (configuration not stated): the melting point was 198 °C.

`O=S1(=O)NCc2cccc(Cl)c21`: the melting point was 159 to 161 °C.

In the case of `Cc1nc(-c2ccccc2)nc(NCC(=O)N(C)c2ccccc2)c1Cl`, the melting point lay in the range of 154 to 155 °C.

`CC1=C(C)C(=O)N(CC(=O)N2c3ccccc3N(Cc3ccccc3)C(=O)[C@H]3CCC[C@H]32)C1=O` (relative stereo) came in with a melting point of 196 to 200 °C.

Take `Cc1nn(C)cc1C(=O)Nc1ccccc1-c1ccc(F)c(Cl)c1`: the melting point lay in the range of 177 to 180 °C.

`CS(=O)(=O)c1ccc(-c2cnn(Cc3cccc([N+](=O)[O-])c3)c(=O)c2-c2ccc(F)cc2)cc1` gave a melting point of 156 to 157 °C.

`COC(=O)Cc1ccccc1OCc1ccc(N(Cc2nc(-c3ccccc3)oc2C)C(=O)OC(C)(C)C)cc1` showed a melting point of 85 to 86 °C.

Compound `CCCCc1nc2cc(Cl)cc(C(=O)OC)c2n1Cc1ccc(-c2ccccc2-c2nnn[nH]2)cc1` returned a melting point of 132 to 133 °C.

For `Oc1ccc(Nc2nc(NCc3ccco3)nc(Nc3ccc(Br)cc3)n2)cc1`, the melting point fell in the range of 37 to 39 °C.

The compound `CCOC(=O)C1=C(Cl)N=C(C)N(C(=O)OC)C1c1cccc([N+](=O)[O-])c1` (configuration not stated) came in with a melting point of 113 to 114 °C.

The compound `O=C1NC(=S)NC(=O)C1=Cc1cccc2ccccc12` displayed a melting point of 280 °C.

`O=C1CCC(N2C(=O)c3cccc(CNC(=O)Nc4cccc(Cl)c4)c3C2=O)C(=O)N1` (configuration not stated) displayed a melting point of 193 to 195 °C.

`Cn1nc(CBr)cc1C(=O)NCCc1ccccc1` came in with a melting point of 112 to 113 °C.

The compound `COC(=O)C(Br)c1ccc2c(c1)OCO2` (configuration not stated) returned a melting point of 39 to 41 °C.

In turn, `COc1ccc(N)c(-c2cc3ccccc3[nH]2)c1` had a melting point of 97 to 99 °C.

`CNc1nnc(-c2ccc3ncn(-c4ccc(OC(F)F)cc4)c3c2)o1` returned a melting point of 195 to 196 °C.

On to `ClC1=NC(Cl)(C(Cl)(Cl)C(Cl)(Cl)Cl)N=C1Cl`, for which the melting point lay within 74 to 75 °C.

For the compound `COC(=O)C(C)(C)Cc1c(SC(C)(C)C)c2cc(OC)ccc2n1Cc1ccc(Cl)cc1`, the melting point lay within 102 to 103 °C.

Consider `N=C(N)c1ccc(C(=O)Nc2cc(C(=O)NCCC(=O)O)ccc2OCc2ccccc2)cc1`, for which the melting point is over 250 °C.

The compound `CCC(=O)c1cc(C2(c3cccc(O)c3)N=C(N)N(C)C2=O)cn1CC` (configuration not stated) displayed a melting point of 101 °C.

In turn, `COC(=O)c1cccc2nc(Cl)n(Cc3ccc(-c4ccccc4C#N)cc3)c12` displayed a melting point of 154 to 157 °C.

`COc1cc(N)c(Cl)cc1C(=O)NCC1CCN(CCCCCC(=O)c2ccc(C)c(C)c2)CC1`: the melting point was 115 to 117 °C.

Turning to `CC(=O)c1ccc(C2C(C(=O)c3ccc(C(C)C)cc3)=C(O)C(=O)N2c2ccc(C)nn2)cc1` (configuration not stated), the melting point was 259 to 266 °C.

`O=C(Nc1ccc(-n2nc(C(F)(F)F)cc2C(F)(F)F)cc1-n1nc(C(F)(F)F)cc1C(F)(F)F)c1ccc(F)cc1F` displayed a melting point of 114 to 115 °C.

Compound `CCOC(=O)c1cccc(-c2ccnc(OCCc3ccc(OC)c(OC)c3)n2)c1` registered a melting point of 94 to 95 °C.

Compound `O=C(O)c1ccc(C(=O)OC(c2ccc3c(c2)OCO3)c2ccc3c(c2)OCO3)s1` showed a melting point of 141 to 148 °C.

For `NS(=O)(=O)c1nnc(NC(=O)c2cnn3c(C(F)(F)F)cc(-c4ccc(C(F)(F)F)cc4)nc23)s1`, the melting point is 280 °C.

`CC(C)(C)NC(=O)N1CC(Oc2cccc(C(F)(F)F)c2)C1` yielded a melting point of 105 to 107 °C.

For the compound `COc1ccccc1-c1ccn2ncc(Br)c2n1`, the melting point fell in the range of 125 to 128 °C.

For the compound `CC(=O)N1CCc2cc(S(=O)(=O)n3c(CCCC(=O)O)cc4nc(Cl)ccc43)ccc21`, the melting point turned out to be 226 °C.

On to `O=C1CCc2cc(Cl)ccc2C1`, for which the melting point lay within 121 to 122 °C.

On to `Cc1ccc2[nH]c3c(cc(-c4ccccc4Nc4ccccc4)c(=O)n3C)c2c1`, for which the melting point lay within 188 to 190 °C.

In the case of `CCCCCCc1oc(C=Cc2ccccc2)nc1C(=O)O`, the melting point lay within 133 to 134 °C.

`Cc1cc(CCCCCOc2ccc(-c3nc(C)c(C)s3)cc2)on1` registered a melting point of 96 to 97 °C.

The compound `CC(=O)NCCCC(=O)N1CC1C#N` (configuration not stated) came in with a melting point of 72 to 75 °C.

The compound `Oc1cccc(C2CNC3(CCCCC3)O2)c1` (configuration not stated) showed a melting point of 138 to 139 °C.

Regarding `CC(=O)Oc1cc2c(c3ccccc13)Nc1ccccc1S2=O` (configuration not stated), the melting point was in the range of 179 to 181 °C.

Take `CC1CCc2nc(N)sc2C1` (configuration not stated): the melting point fell in the range of 98 to 100 °C.

`CCC1(CO)CCCN2CCC3=c4ccccc4=NC3=C21` (configuration not stated) returned a melting point of 111 to 113 °C.

Regarding `Fc1ccccc1C1=CCC(=S)Nc2ccc(Cl)cc21`, the melting point was 179 to 181 °C.

For `CCCCCCCCOC(=O)NCCC(=O)O`, the melting point fell in the range of 70 to 72 °C.

On to `Cc1nc(N2C[C@@H](C)N(Cc3cc(F)cc(F)c3)C2=O)sc1C(N)=O`, for which the melting point was in the range of 212 to 213 °C.

`CCCCC(CC)C(=O)Nc1ccc2ccn(Cc3ccc(C(=O)CS(=O)(=O)c4ccccc4)cc3OC)c2c1` (configuration not stated) registered a melting point of 131 to 133 °C.

For `COc1ccccc1C(Nc1cc(Cl)c(Cl)cc1Cl)C(=O)O` (configuration not stated), the melting point came out at 188 °C.

Regarding `CS(=O)(=O)c1nnc(C(F)F)s1`, the melting point is 59 °C.

Compound `COc1cc2c(c3c1OC(C)(C)C3)C(c1ccccc1)=NC(C)(CN1C(=O)c3ccccc3C1=O)C2` (configuration not stated) came in with a melting point of 121 to 125 °C.

In turn, `CCCn1c(COCC)nc2c(N)nc3ccc(OC4CCN(C(=O)NC(C)C)CC4)cc3c21` had a melting point of 236 to 239 °C.

The compound `CCN(CC)c1ccc(S(=O)(=O)N2CCCC2=O)cc1` gave a melting point of 128 to 130 °C.

Take `CCN1CCN(C(=O)c2ccc(-c3cc(-c4n[nH]cc4-c4cccc(C)n4)ccn3)cc2)CC1`: the melting point was 126 °C.

Compound `CCOC(=O)c1cn(C(C)CCl)c2cc(Cl)c(F)cc2c1=O` (configuration not stated) registered a melting point of 151 to 153 °C.

Consider `COc1cc(Nc2nccc(-c3ccncc3)n2)cc(OC)c1OC`, for which the melting point was found to be 205 °C.

Compound `O=C(O)CCCCCOc1cccc(OCc2ccccc2)c1` registered a melting point of 72 to 73 °C.

The compound `CC1(C)OCC(=CCn2cnc3c(Cl)nc(N)nc32)CO1` returned a melting point of 157 to 159 °C.
